Experimental data as given in BigSolDB 2.1.

O=S(=O)([O-])c1cccc2ccccc12.[Na+]
solubility (mole fraction)
Settings	278.15 K	283.15 K	288.15 K	293.15 K	298.15 K	303.15 K	308.15 K	313.15 K	318.15 K	323.15 K
in 1,4-dioxane	0.0004	0.000497	0.000602	0.000722	0.000842	0.00101	0.00121	0.00143	0.00169	0.00203
in acetone	9.36e-05	0.000122	0.000156	0.000197	0.00024	0.000288	0.000351	0.000417	0.000501	0.0006
in cyclohexanone	0.000222	0.000299	0.00038	0.000481	0.000603	0.000743	0.0009	0.00108	0.00127	0.00152
in ethanol	0.000297	0.000386	0.000513	0.000668	0.000829	0.00106	0.00132	0.00167	0.00217	0.00277
in ethyl acetate	4.49e-05	5.77e-05	7.34e-05	9.37e-05	0.000119	0.000148	0.000184	0.000227	0.000269	0.000311
in isopropanol	0.000108	0.000145	0.000204	0.000275	0.000351	0.000458	0.000588	0.000727	0.000886	0.00109
